Assay results as given in PubChem BioAssay AID248 (DTP/NCI, 2004).
Where “and” joins values, the source holds several entries; their conditions need not be identical. Equal entries are not always repeated. Inconclusive results and toxic doses are left out. Cut-off read from the data, not from the text of the source: active = T/C of 150% or more; inactive = T/C below 125%. Peptide text beside a SMILES is read from it. * marks the point of attachment. Cbz = O=C(OCc1ccccc1)*; OtBu = CC(C)(C)O*

System: L1210 leukemia ip in BDF1 mice, survival T/C
Experiment: NCI In Vivo Anticancer Drug Screen. Data for tumor model L1210 Leukemia (intraperitoneal) in B6D2F1 (BDF1) mice
Settings: endpoint: mean survival time, higher = longer survival
Outline: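 In this screen, tumor-bearing mice given compound are compared to those given vehicle, and their survival values are reported as a treated-to-control quotient.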

[1] = dose: 100.0 mg/kg/injection, schedule: Q04DX003 (ip), vehicle: Klucel (hydroxypropylcellulose) (HPC)
[2] = dose: 200.0 mg/kg/injection, schedule: Q04DX003 (ip), vehicle: Klucel (hydroxypropylcellulose) (HPC)
[3] = dose: 400.0 mg/kg/injection, schedule: Q04DX003 (ip), vehicle: Klucel (hydroxypropylcellulose) (HPC)
[4] = dose: 100.0 mg/kg/injection, schedule: Q01DX009 (ip), vehicle: Klucel (hydroxypropylcellulose) (HPC)
[5] = dose: 200.0 mg/kg/injection, schedule: Q01DX009 (ip), vehicle: Klucel (hydroxypropylcellulose) (HPC)
[6] = dose: 400.0 mg/kg/injection, schedule: Q01DX009 (ip), vehicle: Klucel (hydroxypropylcellulose) (HPC)
[7] = dose: 50.0 mg/kg/injection, schedule: Q01DX001 (ip), vehicle: saline
[8] = dose: 100.0 mg/kg/injection, schedule: Q01DX001 (ip), vehicle: saline
[9] = dose: 100.0 mg/kg/injection, schedule: Q01DX001 (ip), vehicle: Klucel (hydroxypropylcellulose) (HPC)
[10] = dose: 200.0 mg/kg/injection, schedule: Q01DX001 (ip), vehicle: Klucel (hydroxypropylcellulose) (HPC)
[11] = dose: 400.0 mg/kg/injection, schedule: Q01DX001 (ip), vehicle: Klucel (hydroxypropylcellulose) (HPC)
[12] = dose: 100.0 mg/kg/injection, schedule: Q01DX009 (ip), vehicle: saline
[13] = dose: 200.0 mg/kg/injection, schedule: Q01DX009 (ip), vehicle: saline
[14] = dose: 400.0 mg/kg/injection, schedule: Q01DX009 (ip), vehicle: saline

Measured: T/C

CS(=O)(=O)OCCC(=O)NCNC(=O)CCOS(C)(=O)=O
inactive: dose: 10.6 mg/kg/injection, schedule: Q01DX Z (ip), vehicle: carboxymethylcellulose (CMC) 117 % of control and 120 % of control | dose: 16.0 mg/kg/injection, schedule: Q01DX Z (ip), vehicle: carboxymethylcellulose (CMC) 109 % of control | dose: 18.8 mg/kg/injection, schedule: Q01DX Z (ip), vehicle: carboxymethylcellulose (CMC) 124 % of control | dose: 24.0 mg/kg/injection, schedule: Q01DX Z (ip), vehicle: carboxymethylcellulose (CMC) 123 % of control | dose: 28.0 mg/kg/injection, schedule: Q01DX Z (ip), vehicle: carboxymethylcellulose (CMC) 124 % of control | dose: 54.0 mg/kg/injection, schedule: Q01DX Z (ip), vehicle: carboxymethylcellulose (CMC) 122 % of control | dose: 81.0 mg/kg/injection, schedule: Q01DX Z (ip), vehicle: carboxymethylcellulose (CMC) 117 % of control | dose: 84.0 mg/kg/injection, schedule: Q01DX Z (ip), vehicle: carboxymethylcellulose (CMC) 109 % of control | dose: 90.0 mg/kg/injection, schedule: Q01DX Z (ip), vehicle: carboxymethylcellulose (CMC) 121 % of control | dose: 95.0 mg/kg/injection, schedule: Q01DX Z (ip), vehicle: carboxymethylcellulose (CMC) 119 % of control

C=C1C(O)CC2CC1C2(C)C (stereo not drawn)
inactive: dose: 100.0 mg/kg/injection, schedule: Q04DX003 (ip), vehicle: saline with Tween-80 92 % of control | dose: 200.0 mg/kg/injection, schedule: Q04DX003 (ip), vehicle: saline with Tween-80 92 % of control

CCc1ccccc1NC(=O)Nc1cccc(O)c1
inactive: dose: 100.0 mg/kg/injection, schedule: Q01DX009 (ip), vehicle: saline with Tween-80 100 % of control | dose: 200.0 mg/kg/injection, schedule: Q01DX009 (ip), vehicle: saline with Tween-80 89 % of control | dose: 400.0 mg/kg/injection, schedule: Q01DX009 (ip), vehicle: saline with Tween-80 94 % of control

CC(SS(=O)(=O)O)C(N)=NCc1ccccc1 (stereo not drawn)
inactive: dose: 25.0 mg/kg/injection, schedule: Q04DX002 (ip), vehicle: Klucel (hydroxypropylcellulose) (HPC) 94 % of control | dose: 50.0 mg/kg/injection, schedule: Q04DX002 (ip), vehicle: Klucel (hydroxypropylcellulose) (HPC) 108 % of control | dose: 100.0 mg/kg/injection, schedule: Q04DX002 (ip), vehicle: Klucel (hydroxypropylcellulose) (HPC) 98 % of control

COC(=O)C(CCC(=O)OC(C)(C)C)NC(=O)C(CCC(=O)OC(C)(C)C)NC(=O)OCc1ccccc1 (stereo not drawn) (Cbz-Glu(OtBu)-Glu(OtBu)-OMe; configuration not given here)
inactive: [1] 100 % of control | [2] 99 % of control | [3] 103 % of control

O=C(O)c1c2ccccc2cc2ccccc12
inactive: [4] 105 % of control | [5] 107 % of control | [6] 104 % of control

CC(=O)/C=C(\C)OB(F)F
inactive: [7] 98 % of control | [8] 95 % of control

CCCCC(=O)N1C(=O)/C(=C\N(C)C)c2cc(C=O)ccc21
inactive: [9] 90 % of control | [10] 90 % of control | [11] 93 % of control

C1CCC2(CC1)CCCC2
inactive: dose: 75.0 mg/kg/injection, schedule: Q01DX001 (ip), vehicle: saline with Tween-80 95 % of control | dose: 150.0 mg/kg/injection, schedule: Q01DX001 (ip), vehicle: saline with Tween-80 92 % of control | dose: 300.0 mg/kg/injection, schedule: Q01DX001 (ip), vehicle: saline with Tween-80 104 % of control

O=c1cc(CSCCO)[nH]c(=O)[nH]1
inactive: dose: 100.0 mg/kg/injection, schedule: Q04DX003 (ip), vehicle: saline 102 % of control | dose: 200.0 mg/kg/injection, schedule: Q04DX003 (ip), vehicle: saline 96 % of control | dose: 400.0 mg/kg/injection, schedule: Q04DX003 (ip), vehicle: saline 104 % of control

O=C(NCCCl)NC1c2cc(Cl)ccc2-c2c(Cl)cc(Cl)cc21 (stereo not drawn)
inactive: [9] 92 % of control | [4] 87 % of control | [1] 94 % of control | [10] 96 % of control | [5] 90 % of control | [2] 98 % of control | [11] 92 % of control | [6] 95 % of control | [3] 98 % of control

CS/C([S-])=N/[NH-].CS/C([S-])=N/[NH-].[Pd]
inactive: dose: 3.13 mg/kg/injection, schedule: Q01DX009 (ip), vehicle: saline with Tween-80 98 % of control | dose: 6.25 mg/kg/injection, schedule: Q01DX009 (ip), vehicle: saline with Tween-80 100 % of control | dose: 12.5 mg/kg/injection, schedule: Q01DX009 (ip), vehicle: saline with Tween-80 89 % of control

FC(F)(F)c1ccc(C2=Nc3cccc4cccc(c34)N2)cc1
inactive: dose: 15.0 mg/kg/injection, schedule: Q01DX Z (ip), vehicle: saline 105 % of control | dose: 30.0 mg/kg/injection, schedule: Q01DX Z (ip), vehicle: saline 112 % of control | dose: 60.0 mg/kg/injection, schedule: Q01DX Z (ip), vehicle: saline 110 % of control | dose: 120.0 mg/kg/injection, schedule: Q01DX Z (ip), vehicle: saline 98 % of control | dose: 120.0 mg/kg/injection, schedule: Q01DX Z (oral), vehicle: saline 105 % of control | dose: 240.0 mg/kg/injection, schedule: Q01DX Z (ip), vehicle: saline 97 % of control | dose: 240.0 mg/kg/injection, schedule: Q01DX Z (oral), vehicle: saline 118 % of control | dose: 480.0 mg/kg/injection, schedule: Q01DX Z (ip), vehicle: saline 86 % of control | dose: 480.0 mg/kg/injection, schedule: Q01DX Z (oral), vehicle: saline 106 % of control | dose: 960.0 mg/kg/injection, schedule: Q01DX Z (oral), vehicle: saline 91 % of control

O=C(O)c1c(-c2ccccc2)[nH]c2ccccc2c1=O
inactive: [1] 88 % of control | [2] 87 % of control | [3] 90 % of control

CN(C)P(N)(N)=O
inactive: [12] 101 % of control | [1] 97 % of control | [13] 97 % of control | [2] 101 % of control | [14] 103 % of control | [3] 100 % of control

COc1ccc(C)cc1NC(=O)c1ccc(F)cc1
inactive: [4] 94 % of control | [5] 97 % of control | [6] 100 % of control

COC1OC(CO)C(O)C(O)C1O (stereo not drawn)
inactive: dose: 44.0 mg/kg/injection, schedule: Q01DX001 (ip), vehicle: saline 102 % of control and 105 % of control | [7] 102 % of control | dose: 50.0 mg/kg/injection, schedule: Q01DX009 (ip), vehicle: saline 90 % of control | dose: 66.0 mg/kg/injection, schedule: Q01DX001 (ip), vehicle: saline 96 % of control and 100 % of control | [8] 100 % of control and 107 % of control | [12] 109 % of control | dose: 150.0 mg/kg/injection, schedule: Q01DX001 (ip), vehicle: saline 105 % of control and 107 % of control | dose: 200.0 mg/kg/injection, schedule: Q01DX001 (ip), vehicle: saline 100 % of control | [13] 93 % of control | dose: 400.0 mg/kg/injection, schedule: Q01DX001 (ip), vehicle: saline 111 % of control

CC1=CCC2(C)C(=O)C1CC1=C2CC(C)(C)CC1=O (stereo not drawn)
inactive: [12] 92 % of control | [1] 101 % of control | [13] 94 % of control | [2] 98 % of control | [14] 101 % of control | [3] 98 % of control

C=C(C)C1Cc2c(ccc3c(=O)c4c(oc23)C(O)Oc2cc(OC)c(OC)cc2-4)O1 (stereo not drawn)
inactive: [4] 93 % of control | [5] 95 % of control | [6] 97 % of control
